Values of other authors, collected in patent US20040038890A1, “Human voltage-gated potassium channel subunit” (priority 1998, published 2004).

Assays:
[1] = tested on: potassium currents in rat pulmonary artery myocytes
[2] = tested on: Kv2.1 and Kv2.1/rKv9.3 complexes; details: Kv2.1 compared with Kv2.1/rKv9.3
Kv2.1/rKv9.3 = Kv2.1/rKv9.3 (Rattus norvegicus, UniProt O88759+P15387); details: Kv2.1/rKv9.3 versus Kv2.1 alone, Xenopus oocytes
Chain of Kv2.1/rKv9.3 (P15387 whole entry): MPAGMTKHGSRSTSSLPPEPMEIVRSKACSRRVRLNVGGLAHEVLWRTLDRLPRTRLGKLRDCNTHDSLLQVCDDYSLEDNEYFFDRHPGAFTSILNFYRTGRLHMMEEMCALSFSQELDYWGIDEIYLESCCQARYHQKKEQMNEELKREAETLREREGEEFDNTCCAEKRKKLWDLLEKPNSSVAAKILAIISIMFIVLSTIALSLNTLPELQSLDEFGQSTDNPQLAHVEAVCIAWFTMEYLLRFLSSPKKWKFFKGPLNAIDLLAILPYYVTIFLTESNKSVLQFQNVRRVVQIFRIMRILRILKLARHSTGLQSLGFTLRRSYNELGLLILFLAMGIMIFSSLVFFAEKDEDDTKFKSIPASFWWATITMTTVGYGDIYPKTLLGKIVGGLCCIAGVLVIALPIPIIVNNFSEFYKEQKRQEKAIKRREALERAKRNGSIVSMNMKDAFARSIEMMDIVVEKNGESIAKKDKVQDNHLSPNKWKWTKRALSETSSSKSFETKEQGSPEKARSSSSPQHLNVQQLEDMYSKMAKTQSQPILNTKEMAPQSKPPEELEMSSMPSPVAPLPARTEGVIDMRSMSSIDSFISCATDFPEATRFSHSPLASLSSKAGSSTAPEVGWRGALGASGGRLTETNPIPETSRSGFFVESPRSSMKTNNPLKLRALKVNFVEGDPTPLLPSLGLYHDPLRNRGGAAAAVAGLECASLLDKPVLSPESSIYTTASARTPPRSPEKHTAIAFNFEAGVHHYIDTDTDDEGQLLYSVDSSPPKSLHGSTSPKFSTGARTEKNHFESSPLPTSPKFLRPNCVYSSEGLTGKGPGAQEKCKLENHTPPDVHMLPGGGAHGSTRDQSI
Chain of Kv2.1/rKv9.3 (O88759 whole entry): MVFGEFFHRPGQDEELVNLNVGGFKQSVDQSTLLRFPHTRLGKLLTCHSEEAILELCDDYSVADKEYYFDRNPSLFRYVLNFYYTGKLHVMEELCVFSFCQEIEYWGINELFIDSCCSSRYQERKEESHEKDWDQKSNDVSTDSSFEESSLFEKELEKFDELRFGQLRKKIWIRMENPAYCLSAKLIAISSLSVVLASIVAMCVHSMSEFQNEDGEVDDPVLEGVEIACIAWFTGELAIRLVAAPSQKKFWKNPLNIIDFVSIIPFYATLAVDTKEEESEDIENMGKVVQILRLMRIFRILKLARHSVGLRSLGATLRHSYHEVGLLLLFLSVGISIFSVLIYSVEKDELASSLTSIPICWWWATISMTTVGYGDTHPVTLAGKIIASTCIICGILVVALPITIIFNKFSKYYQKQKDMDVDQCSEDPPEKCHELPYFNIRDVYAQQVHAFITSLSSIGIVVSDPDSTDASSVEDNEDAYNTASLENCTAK

| Compound | effect on potassium currents [1] | sensitivity of Kv2.1 and Kv2.1/rKv9.3 complexes [2] | decrease in sensitivity of Kv2.1 when co-expressed with rKv9.3 (Kv2.1/rKv9.3) [fold] |
| --- | --- | --- | --- |
| CCN[C@@H](C)Cc1cccc(C(F)(F)F)c1 [DFF, dex-fenfluramine] | inhibit potassium currents | similarly sensitive |  |
| CC[N+](CC)(CC)CC.[Cl-] [TEA, tetraethylammonium chloride] |  |  | 3 |
| aminorex fumarate | inhibit potassium currents |  |  |
